# Assay results reported in patent US6903104B2, “Indol-3-YL-2-oxoacetamide compounds and methods of use thereof” (National Health Research Institutes, priority 2001, dated 2005).
# pIC50: −log10 of the molar value.
# Columns and labels:
# [1] = system: murine leukemic P388 cells; assay: In vivo anticancer activity, murine leukemic P388 model; set-up: species or system DBA/2J mice; settings: for increase of life span: P.O., daily, 4×
# Description: The in vivo anticancer activities of the compounds are evaluated by the following murine leukemic P388 model. Inbred female DBA/2J mice of 4-5 week-old were purchased from the Charles River Laboratories Inc., Wilmington, Mass., USA and the National Laboratory Animals Breeding and Research Center, Taipei, Taiwan, ROC. Murine leukemic P388 cells are purchased from the Japanese Collection of Research Bioresources, Japan. P388 cells are cultured and propagated in RPMI1640 medium supplemented with 50 μM 2-mercaptoethanol and 10% fetal bovine serum. Mice at the age of 6 weeks were grouped as the treatment, negative control and positive control groups at 7 to 8 mice per group. All mice are intravenously inoculated with the P388 cells at one million per mouse one day before the treatments initiated. Compounds of this invention are dissolved in dimethyl sulfoxide (DMSO) and then diluted in 0.5% carboxymethyl cellulose with the final concentration of DMSO less than 0.5%. Different treatment groups are orally given (P.O.), respectively, with compounds of different doses for a pharmacological dose-response relationship. Mice of the negative control group are treated with the dosing vehicle, 0.5% carboxymethyl cellulose. Doxorubicin of the maximal tolerated dose, 10 mg/kg, is given intravenously as an experimental positive control. The cancer cell-inoculated animals are monitored twice daily. The time on which 50% of the P388-inoculated mice is still surviving is defined as the medium survival time and is used to calculate the percentage (normalized to the medium survival time of the control group) of increased in life span after treatment, which is then served as the index of treatment response.
# [2] = system: gastric NUGC3 cancer cells; assay: In vitro cytotoxicity MTS assay, gastric NUGC3; type: cell-based, human; settings: 72 hours
# Description: (§1) A panel of human cancer cells, gastric NUGC3 and HR, nasopharyngeal HONE1, hepatocellular HEP G2 and HA-22T, colorectal DLD1, lung A549, prostate PC3, breast MCF7 and its adriamycin-resistant MCF7/ADR subline, uterus MES-SA and its adriamycin-resistant MES-SA/Dx5 subline, is purchased from Food Industry Research and Development Institute, Hsinchu, Taiwan R.O.C. or American Type Culture Collection, Manassas, Va. U.S.A., are used in in vitro cytotoxicity assays. The human cells are seeded at a cell density of 3000 or 4500 cells/100 μl/well in 96-well flat-bottom plates and incubated for 24 hours at 37° C. in a 5% CO2 incubator. The testing compounds are dissolved in dimethyl sulfoxide (DMSO) and further diluted into the culture medium for treatments of human cancer cells in vitro. The drug-containing media has a final DMSO concentration of ≦0.3%. The compounds of this invention are prepared in culture media for testing at a range of concentrations from 10, 1, 0.1, 0.01 to 0.001 μM. Each compound solution is (200 μl/well in duplicate) in the cell plates and is treated for 72 hours at 37° C., 5% CO2 in an incubator. Actinomycin D at 5 μM and 0.3% DMSO are used as the positive and vehicle controls, respectively. A colorimetric assay using 3-(4,5-dimethylthiazol-2-yl)-5-(3-carboxymethoxyphenyl)-2-(4-sulfophenyl)-2H-tetrazolium (MTS) and phenazine methosulfate (PMS) is used to determine the potency of the compounds. This assay measures cell viability based on the cellular activity in conversion of a tetrazolium salt into a colored soluble formazan product. The optical density (OD) values are measured at 490 nm with a 1420 multilabel counter VICTOR® from Wallac, Turku, Finland. All of the measured values are subtracted with that of the blank control wells without cells before further calculations. The efficacy data are expressed as a percentage normalized to the vehicle controls as calculated in the following formulae. Inhibitory potency (% of vehicle control)=[(OD490compound−OD490blank)/(OD490vehicle−OD490blank)]×100%. The concentration (IC50) of a test compound that inhibits 50% of the cellular activity is determined.
# breast MCF7 cancer cells = assay: In vitro cytotoxicity MTS assay, breast MCF7; type: cell-based, human; settings: 72 hours
# Description: as §1
# [3] = system: colorectal DLD1 cancer cells; assay: In vitro cytotoxicity MTS assay, colorectal DLD1; type: cell-based, human; settings: 72 hours
# Description: as §1
# [4] = system: nasopharyngeal HONE1 cancer cells; assay: In vitro cytotoxicity MTS assay, nasopharyngeal HONE1; type: cell-based, human; settings: 72 hours
# Description: as §1
# [5] = system: hepatocellular HEP G2 cancer cells; assay: In vitro cytotoxicity MTS assay, hepatocellular HEP G2; type: cell-based, human; settings: 72 hours
# Description: as §1
# gastric HR cancer cells = assay: In vitro cytotoxicity MTS assay, gastric HR; type: cell-based, human; settings: 72 hours
# Description: as §1
# [6] = system: adriamycin-resistant MCF7/ADR subline; assay: In vitro cytotoxicity MTS assay, adriamycin-resistant MCF7/ADR; type: cell-based, human; settings: 72 hours
# Description: as §1
# [7] = system: hepatocellular HA-22T cancer cells; assay: In vitro cytotoxicity MTS assay, hepatocellular HA-22T; type: cell-based, human; settings: 72 hours
# Description: as §1
Compound,"increased of life span ([1]; maximal tolerated dose, 10 mg/kg, intravenously, mean±sd) [%]",pIC50 [2],pIC50 (breast MCF7 cancer cells),pIC50 [3],"increase of life span ([1]; 25 mg/kg, P388-inoculated mice) [%]","increase of life span ([1]; 50 mg/kg, P388-inoculated mice) [%]","increase of life span ([1]; 100 mg/kg, P388-inoculated mice) [%]","increase of life span ([1]; 150 mg/kg, P388-inoculated mice) [%]","increase of life span ([1]; 200 mg/kg, P388-inoculated mice) [%]","increase of life span ([1]; 400 mg/kg, P388-inoculated mice) [%]","activity in the increase of life span (dose-response) ([1]; oral, P388-inoculated mice)",pIC50 [4],pIC50 [5],pIC50 (gastric HR cancer cells),pIC50 [6],pIC50 [7]
"COc1cccc2c1C(=O)c1c(O)c3c(c(O)c1C2=O)C[C@@](O)(C(=O)CO)C[C@@H]3O[C@H]1C[C@H](N)[C@H](O)[C@H](C)O1 [doxorubicin, reference compound]",119±18,,,,,,,,,,,,,,,
O=C(Nc1ccc2ncccc2c1)C(=O)c1cn(Cc2ccsc2)c2ccccc12 [Compound 48],,6.69,6.04,5.84,25,60,25,68 ± 25,63,229,dose-dependent activity,6.66,5.38,6.26,6.43,6.52
N#Cc1ccc(Cn2cc(C(=O)C(=O)NCCCCCCOc3ccc(Cl)cc3)c3ccccc32)cc1 [Compound 43],,6.87,6.07,6.27,,,,,,,,7.51,6.15,6.54,6.39,6.70
N#Cc1ccc(Cn2cc(C(=O)C(=O)Nc3cc(-c4ccc(Cl)cc4)no3)c3ccccc32)cc1 [Compound 30],,6.19,6.04,6.03,,,,,,,,6.48,6.02,6.13,6.07,6.25
Cc1cc(Cn2cc(C(=O)C(=O)Nc3ccc(Br)cc3)c3ccccc32)on1 [Compound 62],,6.86,6.06,6.19,,,,,,,,7.38,5.17,6.52,6.29,6.83
COc1ccc(NC(=O)C(=O)c2cn(Cc3ccsc3)c3ccccc23)cc1 [Compound 50],,7.43,6.77,6.13,,,,,,,,7.42,5.88,6.89,6.39,7.34
